According to patent publication US20240285571A1, “METHODS OF TREATING BONE INFECTIONS” (MICROBION CORPORATION, priority 2020, published 2024):
Values after ≈ are worked out from the molar mass of the structure shown.

Columns and labels:
M. abscessus (MABSC) = test: MIC against CF isolates (Example 7, Table 18); type: cell-based, Mycobacterium abscessus complex; conditions: Mycobacteroides abscessus
E. coli = E. coli MMX 102 (ATCC 25922); cited from earlier work
enterococci = test: MIC summary, enterococci (Example 5); type: cell-based, E. faecalis and E. faecium; conditions: Enterococcus, VRE (Table 5), read-out: MIC values across isolates
Description: (§1) Test and Comparator Agents: The test agents were stored at room temperature until assayed. All test agents were suspended and diluted in 100% dimethylsulfoxide (DMSO), and were ultimately tested at a final concentration of 0.06-64 μg/mL. The stock solutions were allowed to stand for at least 1 hr prior to use to auto-sterilize.
TestMedia: Test media were prepared and stored in accordance with guidelines from CLSI (4, 6, 7). […] Neisseria gonorrhoeae were evaluated by agar dilution using agar consisting of GC medium base (BD; Lot No. 4274618) supplemented with 1% IsoVitaleX (BD; Lot No. 5246843).
Broth Microdilution MC Testing (Aerobic Bacteria and Yeast): The broth microdilution assay method employed for the susceptibility testing of aerobic bacteria (excluding N. gonorrhoeae which was evaluated by agar dilution) and yeast essentially followed the procedures described by CLSI (3, 4, 7, 8) and employed automated liquid handlers to conduct serial dilutions and liquid transfers. […]
(§2) Plates were stacked 4 high, covered with a lid on the top plate, placed into plastic bags, and incubated at 35° C. for approximately 24-48 hr for all yeast isolates and 16-24 hr for aerobic bacteria. […] MIC endpoints for the test agents and control compounds were read per CLSI criteria (3, 7).

C. tropicalis = test: Broth microdilution MIC, yeast (Example 5); type: cell-based; conditions: Candida tropicalis, FLUR
Description: as §1
(§3) The susceptibility of yeast isolates was determined by broth microdilution in RPMI medium (HyClone Laboratories, Logan, UT; Lot No. AZC184041B) buffered with 0.165 M MOPS (Calbiochem, Billerica, MA; Lot No. 2694962). The pH of the medium was adjusted to 7.0 with 1 N NaOH, sterile filtered using a 0.2 μm PES filter, and stored at 4° C. until used.
(§4) Broth Microdilution MC Testing (Aerobic Bacteria and Yeast): The broth microdilution assay method employed for the susceptibility testing of aerobic bacteria (excluding N. gonorrhoeae which was evaluated by agar dilution) and yeast essentially followed the procedures described by CLSI (3, 4, 7, 8) and employed automated liquid handlers to conduct serial dilutions and liquid transfers. Automated liquid handlers included the Multidrop 384 (Labsystems, Helsinki, Finland) and Biomek 2000 (Beckman Coulter, Fullerton CA). The wells in columns 2-12 in standard 96-well microdilution plates (Costar 3795) were filled with 150 μl of the correct diluent. These would become the ‘mother plates’ from which ‘daughter’ or test plates would be prepared. The drugs (300 μL at 40× the desired top concentration in the test plates) were dispensed into the appropriate well in Column 1 of the mother plates. The Biomek 2000 was used to make serial two-fold dilutions through Column 11 in the “mother plate”. The wells of Column 12 contained no drug and ultimately served as the organism growth control wells.
(§5) The daughter plates were loaded with 185 μL per well of the appropriate test media using the Multidrop 384. The daughter plates were prepared using the Biomek FX which transferred 5 μL of drug solution from each well of a mother plate to the corresponding well of the correct daughter plate in a single step.
(§6) A standardized inoculum of each organism was prepared per CLSI methods (3, 7). Isolated colonies of each test isolate were picked from the primary plate and a suspension was prepared to equal a 0.5 McFarland turbidity standard. Standardized suspensions were then diluted […] (1:100 for yeast, 1:20 for bacteria). After dilution, the inoculum suspensions were then transferred to compartments of sterile reservoirs divided by length (Beckman Coulter), and the Biomek 2000 was used to inoculate all plates. Daughter plates were placed on the Biomek 2000 in reverse orientation so that plates were inoculated from low to high drug concentration.
(§7) The Biomek 2000 delivered 10 μL of standardized inoculum into each well of the appropriate daughter plate for an additional 1:20 dilution. […] The final concentration of DMSO (if used as a solvent) in the test well was 2.5%.
as §2, with “bacteria. Plates were viewed from the bottom using a plate viewer.” for “bacteria.”

C. parapsilosis = test: Broth microdilution MIC, yeast (Example 5); type: cell-based; conditions: Lodderomyces parapsilosis
Description: as §1, §3, §4, §5, §6, §7
as §2, with “bacteria. Plates were viewed from the bottom using a plate viewer.” for “bacteria.”

C. albicans = test: Broth microdilution MIC, yeast (Example 5); type: cell-based; conditions: Candida albicans, Sensitive
Description: as §1, §3, §4, §5, §6, §7
as §2, with “bacteria. Plates were viewed from the bottom using a plate viewer.” for “bacteria.”

C. glabrata = test: Broth microdilution MIC, yeast (Example 5); type: cell-based; conditions: Nakaseomyces glabratus, FLUR
Description: as §1, §3, §4, §5, §6, §7
as §2, with “bacteria. Plates were viewed from the bottom using a plate viewer.” for “bacteria.”

anaerobes = test: MIC summary, anaerobes (Example 5); type: cell-based, Bacteroides fragilis and Clostridium difficile; conditions: read-out: MIC values across isolates
Description: as §1
The susceptibility of anaerobic bacteria was determined by agar dilution using Brucella Agar (BD/BBL; Lot No. 5237692) supplemented with 5 μg/mL hemin (Sigma, St. Louis, MO; Lot No. 108K1088), 1 μg/mL Vitamin K1 and 5% (v/v) laked sheep blood (Cleveland Scientific, Bath, OH; Lot No. 322799).
Agar Dilution MIC Testing (Anaerobic Bacteria and Gonococci): MIC values for anaerobic bacteria were determined using a reference agar dilution method as described by CLSI (6). Organisms were grown at 35° C. in the Bactron II Anaerobic Chamber (Shel Lab, Cornelius, OR) for approximately 48 hr prior to the assay. Drug dilutions and drug-supplemented agar plates were prepared manually per CLSI (6). The plates were allowed to stand at room temperature for 1 hr to allow the agar surface to dry and pre-reduced for approximately 1 hr in the anaerobe chamber prior to inoculation. Each isolate was suspended to the equivalent of a 0.5 McFarland standard in Brucella broth using a turbidity meter (Dade Behring MicroScan, West Sacramento, CA). […] The MIC was read per CLSI guidelines (6).

[1] = 24 h, C. parapsilosis MMX 7370, FLUR
[2] = 24 h, C. parapsilosis MMX 7555, FLUR
[3] = 48 h, C. parapsilosis MMX 7370, FLUR
[4] = 48 h, C. parapsilosis MMX 7555, FLUR
[5] = ATCC22019, 24 h, C. parapsilosis MMX 2323 (ATCC 22019), QC, 24 hr
[6] = ATCC22019, 48 h, C. parapsilosis MMX 2323 (ATCC 22019), QC, 48 hr

SMILES | CLSI QC range of MIC (E. coli) | MIC (enterococci) [µg/mL] | MIC (C. tropicalis; 24 h, C. tropicalis MMX 7247) [µg/mL] | MIC (C. tropicalis; 24 h, C. tropicalis MMX 7248) [µg/mL] | MIC (C. tropicalis; 24 h, C. tropicalis MMX 7360) [µg/mL] | MIC (C. tropicalis; 48 h, C. tropicalis MMX 7247) [µg/mL] | MIC (C. tropicalis; 48 h, C. tropicalis MMX 7248) [µg/mL] | MIC (C. tropicalis; 48 h, C. tropicalis MMX 7360) [µg/mL] | MIC (C. parapsilosis; [1]) [µg/mL] | MIC (C. parapsilosis; [2]) [µg/mL] | MIC (C. parapsilosis; [3]) [µg/mL] | MIC (C. parapsilosis; [4]) [µg/mL] | MIC (C. parapsilosis; [5]) [µg/mL] | MIC (C. parapsilosis; [6]) [µg/mL] | MIC (C. albicans; 24 h, C. albicans MMX 7055) [µg/mL] | MIC (C. albicans; 48 h, C. albicans MMX 7039) [µg/mL] | MIC (C. albicans; 48 h, C. albicans MMX 7055) [µg/mL] | MIC (C. glabrata; 24 h, C. glabrata MMX 7086) [µg/mL] | MIC (C. glabrata; 24 h, C. glabrata MMX 7318) [µg/mL] | MIC (C. glabrata; 48 h, C. glabrata MMX 7086) [µg/mL] | also measured
NCC[C@H](O)C(=O)N[C@@H]1C[C@H](N)[C@@H](O[C@H]2O[C@H](CN)[C@@H](O)[C@H](O)[C@H]2O)[C@H](O)[C@H]1O[C@H]1O[C@H](CO)[C@@H](O)[C@H](N)[C@H]1O [Amikacin] |  |  |  |  |  |  |  |  |  |  |  |  |  |  |  |  |  |  |  |  | MIC (M. abscessus (MABSC); strain AMT0068-40, M abscessus/massiliense complex): 32 µg/mL (≈ 54.6 µM); MIC (M. abscessus (MABSC); strain AMT0119-7, M abscessus/massiliense complex): 32 µg/mL (≈ 54.6 µM)
CC(C)(O/N=C(\C(=O)N[C@@H]1C(=O)N2C(C(=O)[O-])=C(C[n+]3ccccc3)CS[C@H]12)c1csc(N)n1)C(=O)O [Ceftazidime] | (0.06-0.5) μg/mL |  |  |  |  |  |  |  |  |  |  |  |  |  |  |  |  |  |  |  | 
OCC(S)CS.[Bi] (centres unmarked) [MB-2B, bismuth-2,3-dimercaptopropanol] |  | 2 to 4 | 2 | 4 | 1 | 4 | 4 | 2 | 0.5 | 0.25 | 0.5 | 1 | 0.5 | 1 | 1 | 2 | 4 | 0.5 | 0.25 | 1 | MIC (C. albicans; 24 h, C. albicans MMX 7039): 2 µg/mL; MIC (C. glabrata; 48 h, C. glabrata MMX 7318): 1 µg/mL; MIC (anaerobes): 2 to 16 µg/mL
CC(S)C(C)S.[Bi] (centres unmarked) [MB-6, bismuth-2,3-butanedithiol] |  | 0.25 to 1 | 4 | 4 | 2 | 4 | 8 | 2 | 0.25 | 0.25 | 0.5 | 0.5 | 0.5 | 1 | 2 | 2 | 2 | 0.5 | 0.25 | 1 | MIC (C. glabrata; 48 h, C. glabrata MMX 7318): 0.5 µg/mL; MIC (M. abscessus (MABSC); MABSC strain AMT0130-8): 0.0625 µg/mL
C[C@@H](O)[C@H]1C(=O)N2C(C(=O)O)=C(S[C@@H]3CN[C@H](C(=O)N(C)C)C3)[C@H](C)[C@H]12 [Meropenem] | (0.008-0.06) μg/mL |  |  |  |  |  |  |  |  |  |  |  |  |  |  |  |  |  |  |  | 
